The nature of test [1]: Antiproliferative activity against human RPMI8226 cells after 72 hrs by WST8 assay. Format: functional, cell-based. To be noted: RPMI-8226, 72 h. Background: Tetrazolium dyes change colour on reduction, which living cells bring about.
The target in a further test is Histone deacetylase 3 (Homo sapiens, UniProt O15379). Briefly: Inhibition of human recombinant full length HDAC3 using (Ac)-Lys-Tyr-Lys(-acetyl)-AMC substrate after 30 mins.
The target of test [2] is T1, Protein deacetylase HDAC6 (Homo sapiens, UniProt Q9UBN7).
T1 sequence (Q9UBN7 whole entry): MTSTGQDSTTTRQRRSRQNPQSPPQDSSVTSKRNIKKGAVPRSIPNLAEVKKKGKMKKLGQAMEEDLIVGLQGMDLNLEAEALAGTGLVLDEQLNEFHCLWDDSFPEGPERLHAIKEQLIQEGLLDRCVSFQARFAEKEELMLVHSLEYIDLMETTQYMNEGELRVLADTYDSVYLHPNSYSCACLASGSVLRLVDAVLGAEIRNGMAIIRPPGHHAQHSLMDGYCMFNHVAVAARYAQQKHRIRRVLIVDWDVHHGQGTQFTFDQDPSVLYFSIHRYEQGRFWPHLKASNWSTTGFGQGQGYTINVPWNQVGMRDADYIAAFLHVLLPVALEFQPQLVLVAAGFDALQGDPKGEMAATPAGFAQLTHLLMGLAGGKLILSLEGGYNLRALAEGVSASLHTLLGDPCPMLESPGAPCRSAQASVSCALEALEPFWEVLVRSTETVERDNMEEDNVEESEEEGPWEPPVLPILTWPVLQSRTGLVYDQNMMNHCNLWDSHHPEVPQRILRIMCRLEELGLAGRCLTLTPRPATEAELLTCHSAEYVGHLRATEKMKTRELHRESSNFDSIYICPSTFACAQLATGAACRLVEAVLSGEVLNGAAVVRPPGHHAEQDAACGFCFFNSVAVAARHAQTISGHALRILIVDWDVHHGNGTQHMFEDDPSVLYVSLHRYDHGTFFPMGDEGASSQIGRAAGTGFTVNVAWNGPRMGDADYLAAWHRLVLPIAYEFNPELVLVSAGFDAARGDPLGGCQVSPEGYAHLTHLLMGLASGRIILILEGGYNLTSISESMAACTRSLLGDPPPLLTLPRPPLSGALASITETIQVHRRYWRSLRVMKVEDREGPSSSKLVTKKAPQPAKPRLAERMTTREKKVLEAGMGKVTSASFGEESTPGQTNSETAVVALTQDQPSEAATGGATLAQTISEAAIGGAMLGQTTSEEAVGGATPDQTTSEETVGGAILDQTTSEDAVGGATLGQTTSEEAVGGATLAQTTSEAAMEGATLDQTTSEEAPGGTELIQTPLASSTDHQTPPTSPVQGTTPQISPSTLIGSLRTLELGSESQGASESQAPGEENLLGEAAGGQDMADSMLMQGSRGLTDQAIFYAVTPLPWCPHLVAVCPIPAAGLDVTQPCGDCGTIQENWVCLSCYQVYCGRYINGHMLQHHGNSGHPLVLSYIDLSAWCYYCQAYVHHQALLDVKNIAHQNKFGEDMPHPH
Nature of the test: Inhibition of human recombinant full length HDAC6 using (Boc-Lys (-acetyl)-AMC substrate after 30 mins.

Another test has as its target Histone deacetylase 1 (Homo sapiens, UniProt Q13547). Briefly: Inhibition of human recombinant full length HDAC1 using (Ac)-Lys-Tyr-Lys(-acetyl)-AMC substrate after 30 mins.
Test [3] deals with T2, Histone deacetylase (Homo sapiens) (UniProt Q13547+O15379+Q9UBN7+Q92769+Q9UQL6+Q8WUI4+Q9BY41+Q96DB2+P56524+Q9UKV0+Q969S8). Nature of the test: Inhibition of HDAC in human RPMI8226 cells assessed as increase in histone H3 acetylation after 24 hrs by Western blot analysis. Format: cell-based. To be noted: RPMI-8226. On the technique in general: Immunoblotting shows a protein as a band on a membrane.

For test [4], the target named is T2, Histone deacetylase (Homo sapiens). Briefly: Inhibition of HDAC in human RPMI8226 cells assessed as increase in alpha-tubulin acetylation after 24 hrs by Western blot analysis. Format: cell-based. To be noted: RPMI-8226.
The nature of test [5]: Antiproliferative activity against human HCT116 cells after 72 hrs by WST8 assay. Type of test: functional, cell-based. To be noted: HCT-116, 72 h.

Structures are written as SMILES.

Sequence of Histone deacetylase 3 (O15379 whole entry): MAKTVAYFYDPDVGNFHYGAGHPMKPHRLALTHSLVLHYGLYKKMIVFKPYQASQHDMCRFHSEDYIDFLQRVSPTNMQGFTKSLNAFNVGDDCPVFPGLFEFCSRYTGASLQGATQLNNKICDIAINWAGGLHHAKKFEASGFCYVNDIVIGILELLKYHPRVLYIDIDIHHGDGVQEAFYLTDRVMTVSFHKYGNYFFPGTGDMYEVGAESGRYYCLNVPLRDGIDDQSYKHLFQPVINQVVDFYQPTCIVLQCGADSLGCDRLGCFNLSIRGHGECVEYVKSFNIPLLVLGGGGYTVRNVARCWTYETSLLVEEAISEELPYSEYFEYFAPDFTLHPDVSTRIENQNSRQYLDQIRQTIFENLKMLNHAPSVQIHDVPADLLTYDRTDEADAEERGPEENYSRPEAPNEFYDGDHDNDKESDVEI
Sequence of Histone deacetylase 1 (Q13547 whole entry): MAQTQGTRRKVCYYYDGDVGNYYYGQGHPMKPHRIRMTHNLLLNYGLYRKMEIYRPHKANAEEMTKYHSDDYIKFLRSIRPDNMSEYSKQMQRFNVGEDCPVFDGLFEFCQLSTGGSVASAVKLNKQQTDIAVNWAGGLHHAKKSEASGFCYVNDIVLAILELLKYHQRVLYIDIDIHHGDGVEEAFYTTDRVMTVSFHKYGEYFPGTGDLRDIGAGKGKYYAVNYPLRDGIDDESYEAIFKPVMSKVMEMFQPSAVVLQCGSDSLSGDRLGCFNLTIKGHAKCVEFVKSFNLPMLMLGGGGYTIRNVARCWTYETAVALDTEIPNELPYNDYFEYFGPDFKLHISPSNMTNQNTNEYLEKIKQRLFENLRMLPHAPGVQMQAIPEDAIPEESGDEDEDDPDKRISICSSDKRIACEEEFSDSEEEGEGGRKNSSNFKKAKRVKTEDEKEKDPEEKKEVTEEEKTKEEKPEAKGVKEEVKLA

Usually IC50 stands for the concentration needed to halve the response being measured. Consider `O=C(CCCCCCC(=O)Nc1cc2c(Nc3ccc(Br)cc3F)ncnc2s1)NO`, for which the IC50 in test [1] worked out at 8120 nM; at Histone deacetylase 3 it was 11.9 nM; in test [2], 8.87 nM; on Histone deacetylase 1, 13.5 nM.
In the same order, the values of `O=C(CCCCCCC(=O)Nc1cc2c(Nc3cccc(Cl)c3F)ncnc2s1)NO` are 8170 nM, 14.6 nM, 8.46 nM and 7.78 nM.
As to `O=C(CCCCCCC(=O)Nc1cc2c(Nc3ccc(F)cc3F)ncnc2s1)NO`, the IC50 is 7490 nM in test [1], 16.9 nM on Histone deacetylase 3, 7.88 nM in test [2] and 10.1 nM at Histone deacetylase 1.
Regarding `O=C(CCCCC(=O)Nc1cc2c(Nc3ccc(Cl)c(C(F)(F)F)c3)ncnc2s1)NO`, the IC50 at Histone deacetylase 3 came to 607 nM; at Histone deacetylase 1 it was 218 nM.
Turning to `O=C(CCCCCCC(=O)Nc1cc2c(Nc3ccc(Cl)c(C(F)(F)F)c3)ncnc2s1)NO`, the IC50 at Histone deacetylase 3 worked out at 23.5 nM; in test [2], 11.5 nM; at Histone deacetylase 1, 21.7 nM.
Consider `Cc1ccc(Nc2ncnc3sc(NC(=O)CCCCCC(=O)NO)cc23)cc1`, for which the IC50 was 9.33 nM on Histone deacetylase 3, 19.7 nM in test [2] and 14 nM at Histone deacetylase 1.
With `CCN(CC)c1ccc(Nc2ncnc3sc(NC(=O)CCCCCCC(=O)NO)cc23)cc1F`, the half-inhibitory concentration (IC50) turned out to be 1410 nM in test [1]; 3.52 nM at Histone deacetylase 3; 3.44 nM in test [2]; 4.57 nM at Histone deacetylase 1; 2550 nM in test [5]. The inhibition result in test [3] and in test [4] was “Dose-dependent effect” each time.
In the case of `O=C(CCCCCCC(=O)Nc1cc2c(Nc3ccc(O[C@H]4CCOC4)c(Cl)c3)ncnc2s1)NO`, the IC50 in test [1] turned out to be 4200 nM; at Histone deacetylase 3, 3.58 nM; in test [2] it was 1.9 nM; on Histone deacetylase 1, 2.97 nM; in test [5], 2240 nM.
Turning to `O=C(CCCCCCC(=O)Nc1cc2c(Nc3ccccc3)ncnc2s1)NO`, the IC50 in test [1] was 3790 nM; on Histone deacetylase 3, 3.47 nM; in test [2] it was 12 nM; at Histone deacetylase 1, 1.9 nM; in test [5], 1820 nM. For the same compound, the inhibition result in test [3] and in test [4] was “Dose-dependent effect” throughout.
Turning to `O=C(CCCCCC(=O)Nc1cc2c(Nc3ccc(Cl)c(C(F)(F)F)c3)ncnc2s1)NO`, the IC50 came to 48.3 nM on Histone deacetylase 3, 30 nM in test [2] and 40.8 nM at Histone deacetylase 1.
As for `O=C(CCCCCCC(=O)Nc1cc2c(Nc3ccc(Cl)cc3F)ncnc2s1)NO`, the IC50 in test [1] is 3500 nM; on Histone deacetylase 3, 14.5 nM; in test [2], 5.58 nM; on Histone deacetylase 1, 12.5 nM; in test [5] it was 1700 nM.
As to `O=C(CCCCCCC(=O)Nc1cc2c(Nc3ccc(I)cc3F)ncnc2s1)NO`, the results for the IC50 (on Histone deacetylase 3; in test [2]; on Histone deacetylase 1) were 13.5 nM, 6.55 nM and 6.24 nM, respectively.
Turning to `O=C(CCCCCCC(=O)Nc1cc2c(Nc3ccc(N4CCCC4)cc3)ncnc2s1)NO`, the IC50 stood at 5420 nM in test [1]; 14.1 nM on Histone deacetylase 3; 7.19 nM in test [2]; 13.9 nM at Histone deacetylase 1; 3740 nM in test [5].
Taken in the same sequence, the figures for `O=C(CCCCCCC(=O)Nc1cc2c(Nc3ccc(N4CCCC4)c(F)c3)ncnc2s1)NO` were 4630 nM, 14.1 nM, 9.28 nM, 14.5 nM and 4090 nM.
Regarding `O=C(CCCCCC(=O)Nc1cc2c(Nc3ccccc3)ncnc2s1)NO`, the IC50 is 20.8 nM at Histone deacetylase 3, 27 nM in test [2] and 11.8 nM at Histone deacetylase 1.
Take `O=C(CCCCCCC(=O)Nc1cc2c(Cl)ncnc2s1)NO`: the IC50 was 2180 nM in test [1]; 26.5 nM at Histone deacetylase 3; 15.1 nM in test [2]; 25.5 nM on Histone deacetylase 1; 2920 nM in test [5]. For the same compound, the inhibition result in test [3] and in test [4] was “Dose-dependent effect” in each case.
For the compound `O=C(CCCCCC(=O)Nc1cc2c(Nc3ccc(F)c(Cl)c3)ncnc2s1)NO`, the IC50 on Histone deacetylase 3 was 37.7 nM; in test [2], 24 nM; at Histone deacetylase 1, 35.9 nM.
As for `CCN(CC)c1ccc(Nc2ncnc3sc(NC(=O)CCCCCCC(=O)NO)cc23)cc1`, the IC50 in test [1] worked out at 5950 nM; at Histone deacetylase 3 it was 39.7 nM; in test [2], 43.2 nM; at Histone deacetylase 1, 32.9 nM; in test [5], 4440 nM.
Regarding `O=C(CCCCCCC(=O)Nc1cc2c(Nc3ccc(N4CCCCC4)c(F)c3)ncnc2s1)NO`, the IC50 is 3280 nM in test [1]; 8.19 nM on Histone deacetylase 3; 3.42 nM in test [2]; 5.39 nM on Histone deacetylase 1; 1440 nM in test [5].
Regarding `Cc1ccc(Nc2ncnc3sc(NC(=O)CCCCCCC(=O)NO)cc23)cc1`, the IC50 in test [1] was determined as 3840 nM; at Histone deacetylase 3, 2.92 nM; in test [2] it was 5.37 nM; at Histone deacetylase 1 it was 2.01 nM; in test [5] it was 2340 nM. In addition, the inhibition entry in test [3] and in test [4] was “Dose-dependent effect” in each case.
In the case of `O=C(CCCCCCC(=O)Nc1cc2c(Nc3ccc(F)c(Cl)c3)ncnc2s1)NO`, the IC50 at Histone deacetylase 3 was 17.9 nM; in test [2], 22 nM; at Histone deacetylase 1 it was 13.4 nM.
As for `O=C(CCCCC(=O)Nc1cc2c(Nc3ccc(F)c(Cl)c3)ncnc2s1)NO`, the figures for the IC50 (at Histone deacetylase 3; in test [2]; at Histone deacetylase 1) were 127 nM, 569 nM and 131 nM, respectively.
For the compound `O=C(CCCCCCC(=O)Nc1cc2c(Nc3cccc(Cl)c3)ncnc2s1)NO`, the IC50 is 4490 nM in test [1], 6.46 nM on Histone deacetylase 3, 8.58 nM in test [2] and 3.24 nM at Histone deacetylase 1.
As to `Cc1ccc(Nc2ncnc3sc(NC(=O)CCCCCCC(=O)NO)cc23)cc1C`, the IC50 is 2390 nM in test [1]; 3.56 nM at Histone deacetylase 3; 11.4 nM in test [2]; 1.14 nM on Histone deacetylase 1; 1610 nM in test [5]. The inhibition result in test [3] and in test [4] was “Dose-dependent effect” throughout.
Take `Cc1ccc(Nc2ncnc3sc(NC(=O)CCCCCC(=O)NO)cc23)cc1C`: the IC50 stood at 14.7 nM at Histone deacetylase 3, 16.9 nM in test [2] and 29.8 nM on Histone deacetylase 1.
With `CN(C)c1ccc(Nc2ncnc3sc(NC(=O)CCCCCCC(=O)NO)cc23)cc1F`, the IC50 in test [1] is 3490 nM; on Histone deacetylase 3, 3.22 nM; in test [2], 2.69 nM; on Histone deacetylase 1, 4.51 nM; in test [5] it was 4030 nM. Moreover, the inhibition entry in test [3] and in test [4] was “Dose-dependent effect” throughout.
